US9326506B2, “Preparation method, agricultural composition and applications of natural brassinolide analogs” (CHENGDU NEWSUN CROPSCIENCE CO., LTD, priority 2012, dated 2016)

Tested on: rice
Assay: Low temperature assay on rice seedlings
Format: in vivo
Method in brief: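 Nine-day-old etiolated rice seedlings (grown on water at 30 °C±2 °C, dark) immersed in brassinolide analogues at 1–0.0001 mg/L or pure water, held at 1–5 °C for 24 hr. Plant height, leaf area, root weight read at 3, 6, 9, 12 days; leaf and tiller number at 12 days.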

CC(C)(O)CC[C@@H](O)[C@](C)(O)[C@H]1CC[C@@]2(O)[C@@H]3CC(=O)[C@@H]4C[C@@H](O)[C@@H](O)C[C@]4(C)[C@H]3CC[C@]12C [BR6]
Height (0.01 mg/l, 3 °C, 9 days): 7.4 cm
Weight of root (0.01 mg/l, 3 °C, 9 days): 2.9 g
Area of leaf (0.01 mg/l, 3 °C, 12 days): 13.2 cm^2
Height (0.01 mg/l, 3 °C, 12 days): 7.6 cm
Number of leaf (0.01 mg/l, 3 °C, 12 days): 3
Number of tiller (0.01 mg/l, 3 °C, 12 days): 2
Weight of root (0.01 mg/l, 3 °C, 12 days): 2.9 g
Area of leaf (0.01 mg/l, 4 °C, 3 days): 10.8 cm^2
Height (0.01 mg/l, 4 °C, 3 days): 7.1 cm
Weight of root (0.01 mg/l, 4 °C, 3 days): 2.5 g
Area of leaf (0.01 mg/l, 4 °C, 6 days): 12.4 cm^2
Height (0.01 mg/l, 4 °C, 6 days): 7.3 cm
Weight of root (0.01 mg/l, 4 °C, 6 days): 2.6 g
Area of leaf (0.01 mg/l, 4 °C, 9 days): 13.7 cm^2
Height (0.01 mg/l, 4 °C, 9 days): 7.6 cm
Weight of root (0.01 mg/l, 4 °C, 9 days): 2.9 g
Area of leaf (0.01 mg/l, 4 °C, 12 days): 13.7 cm^2
Height (0.01 mg/l, 4 °C, 12 days): 7.8 cm
Number of leaf (0.01 mg/l, 4 °C, 12 days): 3
Number of tiller (0.01 mg/l, 4 °C, 12 days): 2
Weight of root (0.01 mg/l, 4 °C, 12 days): 3.0 g
Area of leaf (0.01 mg/l, 5 °C, 3 days): 10.9 cm^2
Height (0.01 mg/l, 5 °C, 3 days): 7.7 cm
Weight of root (0.01 mg/l, 5 °C, 3 days): 2.8 g
Area of leaf (0.01 mg/l, 5 °C, 6 days): 13.9 cm^2
Height (0.01 mg/l, 5 °C, 6 days): 7.8 cm
Weight of root (0.01 mg/l, 5 °C, 6 days): 3.0 g
Area of leaf (0.01 mg/l, 5 °C, 9 days): 17.1 cm^2
Height (0.01 mg/l, 5 °C, 9 days): 8.1 cm
Weight of root (0.01 mg/l, 5 °C, 9 days): 3.4 g
Area of leaf (0.01 mg/l, 5 °C, 12 days): 18 cm^2
Height (0.01 mg/l, 5 °C, 12 days): 8.5 cm
Number of leaf (0.01 mg/l, 5 °C, 12 days): 4
Number of tiller (0.01 mg/l, 5 °C, 12 days): 3
Weight of root (0.01 mg/l, 5 °C, 12 days): 3.9 g
Area of leaf (0.1 mg/l, 1 °C, 3 days): 10.1 cm^2
Height (0.1 mg/l, 1 °C, 3 days): 7.0 cm
Weight of root (0.1 mg/l, 1 °C, 3 days): 2.8 g
Area of leaf (0.1 mg/l, 1 °C, 6 days): 12 cm^2
Height (0.1 mg/l, 1 °C, 6 days): 7.3 cm
Weight of root (0.1 mg/l, 1 °C, 6 days): 3.0 g
Area of leaf (0.1 mg/l, 1 °C, 9 days): 12.9 cm^2
Height (0.1 mg/l, 1 °C, 9 days): 7.3 cm
Weight of root (0.1 mg/l, 1 °C, 9 days): 3.4 g
Area of leaf (0.1 mg/l, 1 °C, 12 days): 13.4 cm^2
Height (0.1 mg/l, 1 °C, 12 days): 7.5 cm
Number of leaf (0.1 mg/l, 1 °C, 12 days): 3
Number of tiller (0.1 mg/l, 1 °C, 12 days): 3
Weight of root (0.1 mg/l, 1 °C, 12 days): 3.7 g
Area of leaf (0.1 mg/l, 2 °C, 3 days): 10.4 cm^2
Height (0.1 mg/l, 2 °C, 3 days): 7.1 cm
Weight of root (0.1 mg/l, 2 °C, 3 days): 2.9 g
Area of leaf (0.1 mg/l, 2 °C, 6 days): 11.8 cm^2
Height (0.1 mg/l, 2 °C, 6 days): 7.2 cm
Weight of root (0.1 mg/l, 2 °C, 6 days): 3.0 g
Area of leaf (0.1 mg/l, 2 °C, 9 days): 12.8 cm^2
Height (0.1 mg/l, 2 °C, 9 days): 7.3 cm
Weight of root (0.1 mg/l, 2 °C, 9 days): 3.1 g
Area of leaf (0.1 mg/l, 2 °C, 12 days): 13 cm^2
Height (0.1 mg/l, 2 °C, 12 days): 7.4 cm
Number of leaf (0.1 mg/l, 2 °C, 12 days): 3
Number of tiller (0.1 mg/l, 2 °C, 12 days): 3
Weight of root (0.1 mg/l, 2 °C, 12 days): 3.2 g
Area of leaf (0.1 mg/l, 3 °C, 3 days): 10.5 cm^2
Height (0.1 mg/l, 3 °C, 3 days): 7.2 cm
Weight of root (0.1 mg/l, 3 °C, 3 days): 2.5 g
Area of leaf (0.1 mg/l, 3 °C, 6 days): 12 cm^2
Height (0.1 mg/l, 3 °C, 6 days): 7.3 cm
Weight of root (0.1 mg/l, 3 °C, 6 days): 2.6 g
Area of leaf (0.1 mg/l, 3 °C, 9 days): 12.8 cm^2
Height (0.1 mg/l, 3 °C, 9 days): 7.4 cm
Weight of root (0.1 mg/l, 3 °C, 9 days): 2.8 g
Area of leaf (0.1 mg/l, 3 °C, 12 days): 13.2 cm^2
Height (0.1 mg/l, 3 °C, 12 days): 7.5 cm
Number of leaf (0.1 mg/l, 3 °C, 12 days): 3
Number of tiller (0.1 mg/l, 3 °C, 12 days): 2
Weight of root (0.1 mg/l, 3 °C, 12 days): 2.9 g
Area of leaf (0.1 mg/l, 4 °C, 3 days): 10.8 cm^2
Height (0.1 mg/l, 4 °C, 3 days): 7.1 cm
Weight of root (0.1 mg/l, 4 °C, 3 days): 2.5 g
Area of leaf (0.1 mg/l, 4 °C, 6 days): 12.5 cm^2
Height (0.1 mg/l, 4 °C, 6 days): 7.4 cm
Weight of root (0.1 mg/l, 4 °C, 6 days): 2.7 g
Area of leaf (0.1 mg/l, 4 °C, 9 days): 13.5 cm^2
Height (0.1 mg/l, 4 °C, 9 days): 7.5 cm
Weight of root (0.1 mg/l, 4 °C, 9 days): 2.9 g
Area of leaf (0.1 mg/l, 4 °C, 12 days): 13.8 cm^2
Height (0.1 mg/l, 4 °C, 12 days): 7.7 cm
Number of leaf (0.1 mg/l, 4 °C, 12 days): 3
Number of tiller (0.1 mg/l, 4 °C, 12 days): 2
Weight of root (0.1 mg/l, 4 °C, 12 days): 3.1 g
Area of leaf (0.1 mg/l, 5 °C, 3 days): 11.1 cm^2
Height (0.1 mg/l, 5 °C, 3 days): 7.7 cm
Weight of root (0.1 mg/l, 5 °C, 3 days): 2.9 g
Area of leaf (0.1 mg/l, 5 °C, 6 days): 13.9 cm^2
Height (0.1 mg/l, 5 °C, 6 days): 7.8 cm
Weight of root (0.1 mg/l, 5 °C, 6 days): 3.2 g
Area of leaf (0.1 mg/l, 5 °C, 9 days): 17.8 cm^2
Height (0.1 mg/l, 5 °C, 9 days): 8.4 cm
Weight of root (0.1 mg/l, 5 °C, 9 days): 3.5 g
Area of leaf (0.1 mg/l, 5 °C, 12 days): 18.9 cm^2
Height (0.1 mg/l, 5 °C, 12 days): 8.6 cm
Number of leaf (0.1 mg/l, 5 °C, 12 days): 3
Number of tiller (0.1 mg/l, 5 °C, 12 days): 2
Weight of root (0.1 mg/l, 5 °C, 12 days): 4 g
Area of leaf (1 mg/l, 1 °C, 3 days): 10 cm^2
Height (1 mg/l, 1 °C, 3 days): 7.1 cm
Weight of root (1 mg/l, 1 °C, 3 days): 2.8 g
Area of leaf (1 mg/l, 1 °C, 6 days): 11.2 cm^2
Height (1 mg/l, 1 °C, 6 days): 7.2 cm
Weight of root (1 mg/l, 1 °C, 6 days): 3.1 g
Area of leaf (1 mg/l, 1 °C, 9 days): 12.4 cm^2
Height (1 mg/l, 1 °C, 9 days): 7.3 cm
Weight of root (1 mg/l, 1 °C, 9 days): 3.4 g
Area of leaf (1 mg/l, 1 °C, 12 days): 12.8 cm^2
Height (1 mg/l, 1 °C, 12 days): 7.3 cm
Number of leaf (1 mg/l, 1 °C, 12 days): 3
Number of tiller (1 mg/l, 1 °C, 12 days): 3
Weight of root (1 mg/l, 1 °C, 12 days): 3.9 g
Area of leaf (1 mg/l, 2 °C, 3 days): 10.2 cm^2
Height (1 mg/l, 2 °C, 3 days): 7.1 cm
Weight of root (1 mg/l, 2 °C, 3 days): 2.8 g
Area of leaf (1 mg/l, 2 °C, 6 days): 11.7 cm^2
Height (1 mg/l, 2 °C, 6 days): 7.2 cm
Weight of root (1 mg/l, 2 °C, 6 days): 3.0 g
Area of leaf (1 mg/l, 2 °C, 9 days): 12.6 cm^2
Height (1 mg/l, 2 °C, 9 days): 7.3 cm
Weight of root (1 mg/l, 2 °C, 9 days): 3.2 g
Area of leaf (1 mg/l, 2 °C, 12 days): 13.1 cm^2
Height (1 mg/l, 2 °C, 12 days): 7.6 cm
Number of leaf (1 mg/l, 2 °C, 12 days): 3
Number of tiller (1 mg/l, 2 °C, 12 days): 3
Weight of root (1 mg/l, 2 °C, 12 days): 3.9 g
Area of leaf (1 mg/l, 3 °C, 3 days): 10.4 cm^2
Height (1 mg/l, 3 °C, 3 days): 7.1 cm
Weight of root (1 mg/l, 3 °C, 3 days): 2.5 g
Area of leaf (1 mg/l, 3 °C, 6 days): 12.2 cm^2
Height (1 mg/l, 3 °C, 6 days): 7.3 cm
Weight of root (1 mg/l, 3 °C, 6 days): 2.6 g
Area of leaf (1 mg/l, 3 °C, 9 days): 12.6 cm^2
Height (1 mg/l, 3 °C, 9 days): 7.5 cm
Weight of root (1 mg/l, 3 °C, 9 days): 2.9 g
Area of leaf (1 mg/l, 3 °C, 12 days): 13.2 cm^2
Height (1 mg/l, 3 °C, 12 days): 7.6 cm
Number of leaf (1 mg/l, 3 °C, 12 days): 3
Number of tiller (1 mg/l, 3 °C, 12 days): 2
Weight of root (1 mg/l, 3 °C, 12 days): 2.9 g
Area of leaf (1 mg/l, 4 °C, 3 days): 10.9 cm^2
Height (1 mg/l, 4 °C, 3 days): 7.1 cm
Weight of root (1 mg/l, 4 °C, 3 days): 2.5 g
Area of leaf (1 mg/l, 4 °C, 6 days): 12 cm^2
Height (1 mg/l, 4 °C, 6 days): 7.5 cm
Weight of root (1 mg/l, 4 °C, 6 days): 2.6 g
Area of leaf (1 mg/l, 4 °C, 9 days): 13.4 cm^2
Height (1 mg/l, 4 °C, 9 days): 7.5 cm
Weight of root (1 mg/l, 4 °C, 9 days): 3.0 g
Area of leaf (1 mg/l, 4 °C, 12 days): 14 cm^2
Height (1 mg/l, 4 °C, 12 days): 7.7 cm
Number of leaf (1 mg/l, 4 °C, 12 days): 3
Number of tiller (1 mg/l, 4 °C, 12 days): 2
Weight of root (1 mg/l, 4 °C, 12 days): 3.2 g
Area of leaf (1 mg/l, 5 °C, 3 days): 11.1 cm^2
Height (1 mg/l, 5 °C, 3 days): 7.7 cm
Weight of root (1 mg/l, 5 °C, 3 days): 2.9 g
Area of leaf (1 mg/l, 5 °C, 6 days): 13.6 cm^2
Height (1 mg/l, 5 °C, 6 days): 8.0 cm
Weight of root (1 mg/l, 5 °C, 6 days): 3.6 g
Area of leaf (1 mg/l, 5 °C, 9 days): 18.9 cm^2
Height (1 mg/l, 5 °C, 9 days): 8.8 cm
Weight of root (1 mg/l, 5 °C, 9 days): 3.7 g
Area of leaf (1 mg/l, 5 °C, 12 days): 20 cm^2
Height (1 mg/l, 5 °C, 12 days): 8.9 cm
Number of leaf (1 mg/l, 5 °C, 12 days): 3
Number of tiller (1 mg/l, 5 °C, 12 days): 2
Weight of root (1 mg/l, 5 °C, 12 days): 4.5 g
Effects on resistance to low temperature compared among analogues (in vivo): more than those of BR2, BR3 and BR4
